Where two headings read alike, the source gives them in different places.
Experiments:
[1] = tested on: P. falciparum stage V gametocytes; experiment: Gametocytocidal ATP bioluminescence assay (single point 5 μM and 1 μM, dose-response); assay type: cell-based, Plasmodium falciparum; settings: for Ratio IC50 HepG2/IC50 P. falciparum: IC50 HepG2 divided by IC50 P. falciparum gametocytes
Protocol: Purified stage IV-V gametocytes were obtained as previously described [10]. Single point ATP bioluminescence assay and dose–response of positive hits was determined in accordance with the previously published protocol [10].

[2] = tested on: HepG2 cells; experiment: Cytotoxicity in HepG2 cells (intracellular ATP, ATPlite, 48 h); assay type: cell-based, human; settings: HepG2 cells; IC50 per ratio column head; unit inferred
[3] = tested on: P. falciparum asexual stages; settings: asexual stages; TCAMS data; read-out: IC50 asexual; cited from earlier work
[4] = tested on: P. falciparum stage V gametocytes; experiment: microbe, parasite or virus in culture; set-up: BacTiter-Glo ATP luminescence viability of purified stage V gametocytes in 384-well plates, per cent inhibition versus DMSO; settings: Plasmodium falciparum, 48 h, read-out: % Inhibition
[5] = P. falciparum gametocytes, average, read-out: IC50 Pf Gametocytes average, IC50 (µM) average
[6] = sexual stages (gametocytes), dose-response, read-out: IC50 sexual

SMILES	Ratio IC50 HepG2/IC50 P. falciparum [1]	IC50 [1, 5]	IC50 [1, 6]	IC50 [2]	IC50 [3]	inhibition at 5 µM [4]
CC(C)CNCc1cccc(-c2cccc(CN(CCCN3CCN(C)CC3)C(=O)/C=C/c3ccccc3)c2)c1 [TCMDC-140541]	13	0.56 µM	0.557 µM	7470 nM	926 nM	
CN1CCN(CCCN(Cc2cccc(-c3cccc(CNC4CCCC4)c3)c2)C(=O)/C=C/c2ccccc2)CC1 [TCMDC-140543]	9	0.8 µM	0.805 µM	7170 nM	777 nM	
CN1CCN(CCCN(Cc2cccc(-c3ccc(CNC4CCCC4)cc3)c2)C(=O)/C=C/c2ccccc2)CC1 [TCMDC-140544]	9	0.74 µM	0.735 µM	6390 nM	746 nM	
CC(C)CNCc1cccc(-c2cccc(CN(CCCN3CCN(C)CC3)C(=O)CCC3CCCC3)c2)c1 [TCMDC-140554]	7.58	0.6 µM		4550 nM	624 nM	
O=C(c1cccs1)N(Cc1cccc(-c2ccc(CNC3CCCC3)cc2)c1)C1CCN(Cc2ccccc2)CC1 [TCMDC-140567]	8	0.85 µM	0.845 µM	7100 nM	1130 nM	
CN1CCN(CCCN(Cc2cccc(-c3ccc(CNCCc4ccccc4)cc3)c2)C(=O)c2cccs2)CC1 [TCMDC-140568]	6	0.89 µM		5600 nM	716 nM	
CC(C)CNCc1cccc(-c2ccccc2CN(C(=O)NCCc2ccccc2)C2CCN(Cc3ccccc3)CC2)c1 [TCMDC-140608]	<1	> 10 µM		6600 nM	1170 nM	
O=C(NCCc1ccccc1)N(Cc1cccc(-c2ccc(CNC3CCCC3)cc2)c1)C1CCN(Cc2ccccc2)CC1 [TCMDC-140618]	5.66	1.31 µM		7420 nM	404 nM	
CN(C)CCN(Cc1ccccc1-c1ccc(CNCCc2ccccc2)cc1)C(=O)NC1CCCCC1 [TCMDC-140626]	18	0.35 µM		6400 nM	906 nM	
CC(C)CNCc1ccc(-c2cccc(CN(C(=O)NC3CCCCC3)C3CCN(Cc4ccccc4)CC3)c2)cc1 [TCMDC-140628]	1.09	1.66 µM		1810 nM	805 nM	
CN(C)CCCOc1ccc(CN2CCC(c3c[nH]c4ccc(NCC5CCCCC5)cc34)CC2)cc1 [TCMDC-140737]	14	0.5 µM		6800 nM	678 nM	
CN1CCC(N(Cc2ccc(-c3ccc(Cl)cc3)cc2)C(=O)Cn2c(CCc3cccc(F)c3F)cc(=O)c3ccccc32)CC1 [TCMDC-141357]	2	3.43 µM	3.43 µM	6700 nM	865 nM	
ON=C1CCc2cc(-c3cc(-c4ccc(OC5CCNCC5)cc4)oc3-c3ccncc3)ccc21 [TCMDC-141381]	28	0.27 µM		7500 nM	157 nM	
O=C(C1CC1c1ccccc1)N(Cc1ccc(-c2ccc(CNCCc3ccccc3)cc2)cc1)C1CCNCC1 (stereo not shown) [TCMDC-141443]	17	0.39 µM	0.385 µM	6700 nM	1110 nM	
O=C(CC1CCCC1)N(Cc1ccc(-c2ccc(CNC3Cc4ccccc4C3)cc2)cc1)CC1CCCCN1 (stereo not shown) [TCMDC-141446]	6.45	1 µM	1 µM	6470 nM	1060 nM	
CCN(CC)CCCNc1ncc2c(-c3ccc(NC(=O)Nc4cc(C(F)(F)F)ccc4F)cc3)nn(C)c2n1 [TCMDC-141583]	2.73	3.48 µM		9500 nM	220 nM	
CCN(Cc1ccc(-c2ccc(C(F)(F)F)cc2)cc1)C(=O)Cn1c(SCc2cccc(F)c2F)cc(=O)c2cc(CN3CCCCC3)ccc21 [TCMDC-141592]	1.8	2.34 µM	2.33 µM	4200 nM	801 nM	
O=C(O)CCSSc1cccc[n+]1[O-] [TCMDC-141973]	29	0.27 µM		7800 nM	808 nM	
Cc1ccc2nc(C)cc(N/N=C/c3ccc([N+](=O)[O-])cc3)c2c1 [TCMDC-142070]	0.0202	9.41 µM		190 nM	793 nM	
Fc1ccccc1C=NNc1ccnc2ccccc12 [TCMDC-142101]						-64.6%
O=[N+]([O-])c1ccccc1C=NNc1ccnc2ccccc12 [TCMDC-142102]						-47.5%
FC(F)(F)c1ccc2nccc(NN=Cc3ccc(Cl)cc3)c2c1 [TCMDC-142103]						1.69%
Fc1ccccc1C=NNc1ccnc2ccc(C(F)(F)F)cc12 [TCMDC-142104]						-68.2%
COc1ccc2c(NN=Cc3ccc(Cl)cc3)ccnc2c1 [TCMDC-142105]						-15.3%
COc1cccc2c(NN=Cc3ccc(Cl)cc3)ccnc12 [TCMDC-142106]						-26.4%
COc1cccc2c(NN=Cc3cccc(F)c3)ccnc12 [TCMDC-142107]						74.3%
COc1ccc2c(N/N=C/c3ccc([N+](=O)[O-])cc3)ccnc2c1 [TCMDC-142108]						91.3%

SMILES	Ratio IC50 HepG2/IC50 P. falciparum [1]	IC50 [1, 5]	IC50 [1, 6]	IC50 [2]	IC50 [3]	inhibition at 5 µM [4]
COc1cccc2c(N/N=C/c3ccc([N+](=O)[O-])cc3)ccnc12 [TCMDC-142109]						64%
COc1ccc2nccc(NN=Cc3ccccc3)c2c1 [TCMDC-142110]						31.2%
COc1ccc2c(NN=Cc3ccccc3)ccnc2c1 [TCMDC-142111]						89.4%
Fc1ccc2c(NN=CC=Cc3ccccc3)ccnc2c1 [TCMDC-142112]						93.5%
Cc1ccc2c(NN=Cc3ccc(Cl)cc3)cc(C)nc2c1 [TCMDC-142113]						40.7%
Cc1cc(NN=Cc2ccccc2Cl)c2cccc(C)c2n1 [TCMDC-142114]						48.6%
Cc1cc(NN=Cc2ccc(Cl)cc2)c2cccc(C)c2n1 [TCMDC-142115]						-40.8%
COc1cccc2c(NN=Cc3ccccc3Cl)cc(C)nc12 [TCMDC-142116]						23.3%
COc1cccc2c(NN=Cc3cccc(Cl)c3)cc(C)nc12 [TCMDC-142117]						27.1%
COc1ccc2c(NN=Cc3ccccc3F)cc(C)nc2c1 [TCMDC-142118]						-19.6%
COc1ccc2c(NN=Cc3ccccc3)cc(C)nc2c1 [TCMDC-142119]						7.88%
COc1ccc2c(NN=Cc3cccc(C)n3)cc(-c3ccccc3)nc2c1 [TCMDC-142120]						-50.4%
CN=C(Nc1c(Cl)cccc1Cl)N(C)C [TCMDC-142121]						5.95%
Fc1ccc2nccc(NN=Cc3ccccc3Cl)c2c1 [TCMDC-142122]						-2.19%
Fc1ccc2nccc(NN=CC=Cc3ccccc3)c2c1 [TCMDC-142123]						-73.4%
COc1ccc2nccc(NN=Cc3ccc(Cl)cc3)c2c1 [TCMDC-142124]						58.2%
COc1ccc2nccc(NN=Cc3cccc(Cl)c3)c2c1 [TCMDC-142125]						11.8%
COc1ccc2nccc(NN=Cc3ccccc3Cl)c2c1 [TCMDC-142126]						20.5%
COc1ccc2c(NN=Cc3ccccc3Cl)ccnc2c1 [TCMDC-142127]						-22.2%
COc1ccc2c(NN=Cc3cccc(Cl)c3)ccnc2c1 [TCMDC-142128]						98.7%
COc1cccc2c(NN=Cc3cccc(Cl)c3)ccnc12 [TCMDC-142129]						91.8%
COc1ccc2nccc(NN=Cc3ccccc3F)c2c1 [TCMDC-142130]						6.1%
COc1ccc2nccc(NN=Cc3cccc(F)c3)c2c1 [TCMDC-142131]						82.2%
COc1ccc2nccc(NN=Cc3ccc(F)cc3)c2c1 [TCMDC-142132]						32.1%
COc1ccc2c(NN=Cc3ccccc3F)ccnc2c1 [TCMDC-142133]						84.6%
COc1ccc2c(NN=Cc3cccc(F)c3)ccnc2c1 [TCMDC-142134]						99%

Source: publication PMC4552634, “A New Set of Chemical Starting Points with Plasmodium falciparum Transmission-Blocking Potential for Antimalarial Drug Discovery” (PLoS ONE, 2015)
